Measurements taken from EP1750770B1, “USE OF ORGANO-SILICON COMPOUNDS FOR CO[…] TISSUES” (Exsymol, priority 2004, dated 2005).
Like-named read-outs stand apart in the source and are kept apart here.

Tests used:
[1] = system: matrice extra-cellulaire (MEC) cutanée; assay: Qualitative evaluation: implant appearance and histological analysis of collagen organisation of the ECM (Test 1); format: in vivo, rats Hairless; settings: once daily
From the text: (§1) L'action quantitative et qualitative des deux composés organo-siliciés sur des rats Hairless et les altérations d'organisation de leur matrice extra-cellulaire (MEC) cutanée a été évaluée, et de manière régiosélective. En effet, un volume dermique de 0,5 cm^3 environ a été prélevé puis remplacé chirurgicalement par un dispositif médical implantable, que sont les microéponges en polyvinylalcool. Ces dernières sont usuellement utilisées pour la transplantation de cellules (Mooney D.J., J. Biomed. Mat Res(1995), vol.29, pp.959) car biocompatibles, de haute porosité et capables d'absorber 98% de leur volume.
(§2) La re-colonisation de l'implant (ou dispositif médical implantable) par le tissu dermique est alors observée sous l'effet des composés organo-siliciés. […] Les composés organo-siliciés sont administrés à raison d'une fois par jour pendant 2 mois.
(§3) L'évaluation quantitative a été réalisée via une mesure des cinétiques des marqueurs d'activité tissulaire dans la zone implantée. Les marqueurs suivis ont été des marqueurs biologiques témoignant de l'état du tissu, à savoir les enzymes "collagénase" et "élastase" qui rendent compte, avec leurs activités, du turn-over des protéines de la matrice extracellulaire, et l'enzyme "G6PDH" dont l'activité est un marqueur du niveau énergétique des cellules (équilibre redox cellulaire). L'évaluation qualitative a, elle, été réalisée avec le prélèvement chirurgical d'une partie de cet implant à différent temps de l'expérimentation. Après fixation, des coupes de 5 µm et une coloration H.E ou Trichrome-Masson ont été réalisées, ainsi qu'une analyse histologique de l'organisation du collagène de la MEC.

élastase = assay: Elastase activity in tissue extracts of the dermal implant zone (Test 1); format: in vivo, rats Hairless; settings: once daily, SalSi-3OH intradermal, HyalSi-3OH topical cream
Description: Du N-succinyl-Ala-Ala-Pro-Leu p-nitroanilide en solution dans un tampon Tris-HCl (10mM pH 8) à 0,5 g/l à été incubé à 37°C avec 0,2 ml d'extrait tissulaire dans un volume final de 1,2 ml pendant 5 heures. L'augmentation de densité optique (mD.O./min) et corrélée à la protéolyse du substrat a été suivie à […].
as §1, §2, §3

collagénase = assay: Collagenase activity in tissue extracts of the dermal polyvinyl alcohol microsponge implant zone (Test 1); format: in vivo, rats Hairless; settings: once daily
Description: Une solution à 0,5 mg /ml de PZ-L Pro-L Leu-L Gly-L Pro-D Arg a été réalisée dans un tampon Tris-HCl (25 mM, pH 7,0; 2,5 mM de CaCl2). 0,5 ml de la solution de substrat ont été incubés à 37°C avec 200 µl d'extrait tissulaire pendant 2 h 30. A différents temps, 100 µl du milieu réactionnel ont été prélevés et ajoutés à 250 µl d'acide citrique à 0,5% (arrêt de la réaction) puis à 1,25 ml d'acétate d'éthyle. L'augmentation de densité optique (mD.O./min) et corrélée à la protéolyse du substrat a été suivie à 320 nm.
as §1, §2, §3

[2] = system: glucose-6-phosphate déshydrogénase; assay: Glucose-6-phosphate dehydrogenase activity in tissue extracts of the dermal implant zone (Test 1); format: in vivo, rats Hairless; settings: once daily
Description: 0,8 ml d'extrait tissulaire ont été incubés avec 20 µl de solution à 2,4 mM de NADP et à 24,4 mM de glucose 6-phosphate (G6P) en tampon phosphate (0,1M pH 7,4). L'augmentation de densité optique (mD.O./min) et corrélée à la réduction du substrat a été suivie à 340 nm à 25°C.
as §1, §2, §3

[3] = system: rides "patte d'oie" et/ou intersourcilières; settings: for échelle visuelle analogique, Front / échelle visuelle analogique, Pattes-d'oie: intradermal injections at J0, S1, S2, rated by volunteers; for amélioration du relief cutané: all injected sites
From the text: Les données obtenues à partir de l'échelle visuelle analogique ont fait l'objet d'une analyse de variance en mesures répétées sur le temps, suivie d'une analyse des contrastes.

[4] = immediately after the injection
[5] = week 1 post-implantation, SalSi-3OH 0,5% solution 0,2 ml intradermal, HyalSi-3OH 0,5% cream 100 mg topical

hyaluronate de monométhylsilanetriol [HyalSi-3OH]
Aspect implant + analyse histologique ([1]; week 1 post-implantation): début colonisation cellulaire
Aspect implant + analyse histologique ([1]; week 2 post-implantation): colonisation cellulaire (70 à 90%) + début formation MEC
Aspect implant + analyse histologique ([1]; week 3 post-implantation): formation MEC avec accumulation collagène non organisé
Aspect implant + analyse histologique ([1]; week 4 post-implantation): formation MEC avec présence collagène non organisé dans 30% des espaces de l'implant + collagène organisé dans 10% de l'implant
Aspect implant + analyse histologique ([1]; week 5 post-implantation): formation MEC avec présence collagène non organisé dans l'ensemble de l'implant + collagéne organisé dans 30% de l'implant
Aspect implant + analyse histologique ([1]; week 8 post-implantation): formation MEC dans l'ensemble de l'implant + collagène organisé dans 45% de l'implant
Activité élastase (élastase; week 1 post-implantation): 3,4±0,5 mD.O./min/mg de prot.
Activité élastase (élastase; week 2 post-implantation): 7,8±2,2 mD.O./min/mg de prot.
Activité élastase (élastase; week 3 post-implantation): 10,5±2,9 mD.O./min/mg de prot.
Activité élastase (élastase; week 4 post-implantation): 9,4±2,4 mD.O./min/mg de prot.
Activité élastase (élastase; week 5 post-implantation): 5,6±1,1 mD.O./min/mg de prot.
Activité élastase (élastase; week 8 post-implantation): 2,4±0,9 mD.O./min/mg de prot.
Activité collagénase (collagénase; [5]): 3,4±0,3 mD.O./min/mg de prot.
Activité collagénase (collagénase; week 2 post-implantation): 5,9±0,7 mD.O./min/mg de prot.
Activité collagénase (collagénase; week 3 post-implantation): 12,0±1,3 mD.O./min/mg de prot.
Activité collagénase (collagénase; week 4 post-implantation): 14,1±3,1 mD.O./min/mg de prot.
Activité collagénase (collagénase; week 5 post-implantation): 7,3±1,6 mD.O./min/mg de prot.
Activité collagénase (collagénase; week 8 post-implantation): 3,5±1,4 mD.O./min/mg de prot.
Activité G6DPH ([2]; week 1 post-implantation): 8,2±1,9 mD.O./min/mg de prot.
Activité G6DPH ([2]; week 2 post-implantation): 13,8±1,5 mD.O./min/mg de prot.
Activité G6DPH ([2]; week 3 post-implantation): 25,1±4,6 mD.O./min/mg de prot.
Activité G6DPH ([2]; week 4 post-implantation): 46,8±7,6 mD.O./min/mg de prot.
Activité G6DPH ([2]; week 5 post-implantation): 37,5±6,2 mD.O./min/mg de prot.
Activité G6DPH ([2]; week 8 post-implantation): 7,3±2,4 mD.O./min/mg de prot.

salicylate de monométhylsilanetriol [SalSi-3OH]
Aspect implant + analyse histologique ([1]; week 1 post-implantation): début colonisation cellulaire
Aspect implant + analyse histologique ([1]; week 2 post-implantation): colonisation cellulaire (70à 90%) + début formation MEC
Aspect implant + analyse histologique ([1]; week 3 post-implantation): formation MEC avec présence collagène non organisé
Aspect implant + analyse histologique ([1]; week 4 post-implantation): formation MEC avec présence collagène non organisé dans 20% des espaces de l'implant + collagène organisé dans 20% du l'implant
Aspect implant + analyse histologique ([1]; week 5 post-implantation): formation MEC avec présence collagène non organisédans l'ensemble de l'implant + collagène organisé dans 50% de l'implant
Aspect implant + analyse histologique ([1]; week 8 post-implantation): formation MEC dans l'ensemble de l'implant + collagène organisé dans 70% de l'implant
Activité élastase (élastase; week 1 post-implantation): 3,0±0,6 mD.O./min/mg de prot.
Activité élastase (élastase; week 2 post-implantation): 6,8±1,3 mD.O./min/mg de prot.
Activité élastase (élastase; week 3 post-implantation): 9,5±1,3 mD.O./min/mg de prot.
Activité élastase (élastase; week 4 post-implantation): 8,4±1,6 mD.O./min/mg de prot.
Activité élastase (élastase; week 5 post-implantation): 5,1±0,9 mD.O./min/mg de prot.
Activité élastase (élastase; week 8 post-implantation): 2,0±0,3 mD.O./min/mg de prot.
Activité collagénase (collagénase; [5]): 3,6±0,5 mD.O./min/mg de prot.
Activité collagénase (collagénase; week 2 post-implantation): 6,1±0,8 mD.O./min/mg de prot.
Activité collagénase (collagénase; week 3 post-implantation): 13±1,7 mD.O./min/mg de prot.
Activité collagénase (collagénase; week 4 post-implantation): 11,2±0,8 mD.O./min/mg de prot.
Activité collagénase (collagénase; week 5 post-implantation): 8,1±1,3 mD.O./min/mg de prot.
Activité collagénase (collagénase; week 8 post-implantation): 3,9±0,5 mD.O./min/mg de prot.
échelle visuelle analogique, Front ([3]; S1): 18,67 ± 20,98 µm
échelle visuelle analogique, Pattes-d'oie ([3]; S1): 19,20 ± 19,14 µm
échelle visuelle analogique, Front ([3]; S2): 32,25 ± 23,23 µm
échelle visuelle analogique, Pattes-d'oie ([3]; S2): 31,23 ± 21,66 µm
échelle visuelle analogique, Front ([3]; S6): 35,33 ± 26,99 µm
échelle visuelle analogique, Pattes-d'oie ([3]; S6): 38,92 ± 25,97 µm
échelle visuelle analogique, Front ([3]; S12): 38,65 ± 25,85 µm
échelle visuelle analogique, Pattes-d'oie ([3]; S12): 41,63 ± 26,70 µm
échelle visuelle analogique, Front ([3]; S24): 39,55 ± 25,33 µm
échelle visuelle analogique, Pattes-d'oie ([3]; S24): 39,58 ± 24,89 µm
échelle visuelle analogique, Front ([3]; S36): 36,57 ± 24,55 µm
échelle visuelle analogique, Pattes-d'oie ([3]; S36): 39,52 ± 25,22 µm
échelle visuelle analogique, Front ([3]; S52): 34,58 ± 25,54 µm
échelle visuelle analogique, Pattes-d'oie ([3]; S52): 38,61 ± 26,10 µm
amélioration du relief cutané ([3]; at 6 months): se maintient
amélioration du relief cutané ([3]; at 12 months): régresse très légèrement
amélioration du relief cutané ([3]; mean, after 3 months): 40%
amélioration du relief cutané (significance) ([3]; one year after the first injection): significative sur tous les sites
Activité G6DPH ([2]; week 1 post-implantation): 7,6±1,4 mD.O./min/mg de prot.
Activité G6DPH ([2]; week 2 post-implantation): 9,3±1,1 mD.O./min/mg de prot.
Activité G6DPH ([2]; week 3 post-implantation): 18,4±2,9 mD.O./min/mg de prot.
Activité G6DPH ([2]; week 4 post-implantation): 43,7±5,5 mD.O./min/mg de prot.
Activité G6DPH ([2]; week 5 post-implantation): 36,5±4,8 mD.O./min/mg de prot.
Activité G6DPH ([2]; week 8 post-implantation): 9,0±0,45 mD.O./min/mg de prot.
effet de comblement [4]: sans effet de comblement immédiatement après l'injection
